Laboratory results as given in US10556888B2, “Pyrazole compounds or salts thereof, preparation methods therefor, herbicidal compositions and use thereof” (QINGDAO KINGAGROOT CHEMICAL COMPOUNDS CO., LTD, priority 2015, dated 2020).

Assays:
[1] = tested on: main crop (wheat, corn, rice, soybean, cotton, oilseed, millet and sorghum); assay: Post-emergence test experiment, main crops (Table 2); assay type: in vivo; parameters: key: Level 10: completely dead; Level 9: above 90% growth inhibition rate; Level 8: above 80% growth inhibition rate; Level 7: above 70% growth inhibition rate; Level 6: above 60% growth inhibition rate; Level 5: above 50% growth inhibition rate; Level 4: above 30% growth inhibition rate; Level 3: above 20% growth inhibition rate; Level 2: above 10% growth inhibition rate; Level 1: above 1-10% growth inhibition rate; Level 0: no effect; settings: 3 weeks after spraying, greenhouse
Experimental: (§1) Post-emergence test experiment: Monocotyledonous and dicotyledonous weed seeds and main crop seeds (i.e. wheat, corn, rice, soybean, cotton, oilseed, millet and sorghum.) were put into a plastic pot loaded with soil. Then covered with 0.5-2 cm soil, the seeds were allowed to grow in good greenhouse environment. The test plants were treated at 2-3 leaf stage 2-3 weeks after sowing. The test compounds of the invention were dissolved with acetone respectively, then added with 80 tween and diluted by certain amount of water to certain concentration. The solution was sprayed to the plants with a sprayer. Then the plants were cultured for 3 weeks in the greenhouse.

[2] = tested on: Monocotyledonous and dicotyledonous weed; assay: Post-emergence test experiment, weed control effect (Table 2); assay type: in vivo; parameters: key to weed control effect, Setaria viridis (level) / weed control effect, Rorippa indica (level) / weed control effect, Abutilon theophrasti (level) / weed control effect, Echinochloa crus-galli (level) / weed control effect, Digitaria sanguinalis (level): Level 10: completely dead; Level 9: above 90% growth inhibition rate; Level 8: above 80% growth inhibition rate; Level 7: above 70% growth inhibition rate; Level 6: above 60% growth inhibition rate; Level 5: above 50% growth inhibition rate; Level 4: above 30% growth inhibition rate; Level 3: above 20% growth inhibition rate; Level 2: above 10% growth inhibition rate; Level 1: above 1-10% growth inhibition rate; Level 0: no effect; settings: 3 weeks after spraying, greenhouse
Experimental: as §1

| Compound | effect on crop, corn (level) ([1]; 120 g/ha) | effect on crop, rice (level) ([1]; 120 g/ha) | effect on crop, wheat (level) ([1]; 120 g/ha) | weed control effect, Abutilon theophrasti (level) ([2]; 120 g/ha) | weed control effect, Bidens pilosa (level) ([2]; 120 g/ha) | weed control effect, Digitaria sanguinalis (level) ([2]; 120 g/ha) | weed control effect, Echinochloa crus-galli (level) ([2]; 120 g/ha) | weed control effect, Rorippa indica (level) ([2]; 120 g/ha) | weed control effect, Setaria viridis (level) ([2]; 120 g/ha) | effect on crop, corn (level) ([1]; 30 g/ha) | effect on crop, rice (level) ([1]; 30 g/ha) | effect on crop, wheat (level) ([1]; 30 g/ha) | weed control effect, Abutilon theophrasti (level) ([2]; 30 g/ha) | weed control effect, Bidens pilosa (level) ([2]; 30 g/ha) | weed control effect, Digitaria sanguinalis (level) ([2]; 30 g/ha) | weed control effect, Echinochloa crus-galli (level) ([2]; 30 g/ha) | weed control effect, Rorippa indica (level) ([2]; 30 g/ha) | weed control effect, Setaria viridis (level) ([2]; 30 g/ha) | further results |
| --- | --- | --- | --- | --- | --- | --- | --- | --- | --- | --- | --- | --- | --- | --- | --- | --- | --- | --- | --- |
| Cc1nn(C)cc1C(=O)Oc1c(C(=O)c2ccc(S(C)(=O)=O)c(Cn3cc(Cl)cn3)c2Cl)c(C)nn1C [Compound 05] | 0 | 1 (Level 1: above 1-10% growth inhibition rate) | 0 | 9 (Level 9: above 90% growth inhibition rate) | 8 (Level 8: above 80% growth inhibition rate) | 9 (Level 9: above 90% growth inhibition rate) | 10 | 10 | 5 (Level 5: above 50% growth inhibition rate) | – | – | – | – | – | – | – | – | – | – |
| Cc1ccn(Cc2c(S(C)(=O)=O)ccc(C(=O)c3c(C4CC4)nn(C)c3OC(=O)c3cnn(C)c3)c2Cl)n1 [Compound 21] | 0 | 0 | 0 | 6 (Level 6: above 60% growth inhibition rate) | 6 (Level 6: above 60% growth inhibition rate) | 1 (Level 1: above 1-10% growth inhibition rate) | 10 | 4 (Level 4: above 30% growth inhibition rate) | 3 (Level 3: above 20% growth inhibition rate) | – | – | – | – | – | – | – | – | – | – |
| Cn1cc(Cl)c(C(=O)Oc2c(C(=O)c3ccc(S(C)(=O)=O)c(COCC(F)F)c3Cl)cnn2C)n1 [Compound 102] | – | – | – | – | – | – | – | – | – | 1 (Level 1: above 1-10% growth inhibition rate) | 5 (Level 5: above 50% growth inhibition rate) | 0 | 7 (Level 7: above 70% growth inhibition rate) | 7 (Level 7: above 70% growth inhibition rate) | 7 (Level 7: above 70% growth inhibition rate) | 10 | 10 | 6 (Level 6: above 60% growth inhibition rate) | – |
| Cc1cc(C)n(Cc2c(S(C)(=O)=O)ccc(C(=O)c3c(C)nn(C)c3OC(=O)c3cnn(C)c3)c2C)n1 [Compound 79] | 0 | 0 | 0 | 6 (Level 6: above 60% growth inhibition rate) | 6 (Level 6: above 60% growth inhibition rate) | 1 (Level 1: above 1-10% growth inhibition rate) | 10 | 4 (Level 4: above 30% growth inhibition rate) | 3 (Level 3: above 20% growth inhibition rate) | – | – | – | – | – | – | – | – | – | – |
| CCOCc1c(S(C)(=O)=O)ccc(C(=O)c2cnn(C)c2OC(=O)c2cnn(C)c2OCC)c1C [Compound 80] | – | – | – | – | – | – | – | – | – | 0 | 3 (Level 3: above 20% growth inhibition rate) | 0 | 6 (Level 6: above 60% growth inhibition rate) | 7 (Level 7: above 70% growth inhibition rate) | 7 (Level 7: above 70% growth inhibition rate) | 10 | 10 | 6 (Level 6: above 60% growth inhibition rate) | – |
| CCOCCOCc1c(S(C)(=O)=O)ccc(C(=O)c2cnn(C)c2OC(=O)c2cnn(C)c2OCC)c1Cl [Compound 59] | – | – | – | – | – | – | – | – | – | 0 | 3 (Level 3: above 20% growth inhibition rate) | 0 | 7 (Level 7: above 70% growth inhibition rate) | 7 (Level 7: above 70% growth inhibition rate) | 7 (Level 7: above 70% growth inhibition rate) | 8 (Level 8: above 80% growth inhibition rate) | 10 | 6 (Level 6: above 60% growth inhibition rate) | – |
| Cc1cc(C)n(Cc2c(S(C)(=O)=O)ccc(C(=O)c3c(C)nn(C)c3OC(=O)c3cn(C)nc3C)c2Cl)n1 [Compound 03] | 0 | 0 | 0 | 4 (Level 4: above 30% growth inhibition rate) | 6 (Level 6: above 60% growth inhibition rate) | 0 | 10 | 0 | 6 (Level 6: above 60% growth inhibition rate) | – | – | – | – | – | – | – | – | – | – |
| CCOCc1c(S(C)(=O)=O)ccc(C(=O)c2c(CC)nn(CC)c2OC(=O)c2nn(C)cc2Cl)c1Cl [Compound 104] | – | – | – | – | – | – | – | – | – | – | – | – | – | – | – | – | – | – | effect on crop, corn (level) ([1]; 60 g/ha): 0; effect on crop, rice (level) ([1]; 60 g/ha): 4 (Level 4: above 30% growth inhibition rate); effect on crop, wheat (level) ([1]; 60 g/ha): 0; weed control effect, Abutilon theophrasti (level) ([2]; 60 g/ha): 10; weed control effect, Bidens pilosa (level) ([2]; 60 g/ha): 8 (Level 8: above 80% growth inhibition rate); weed control effect, Digitaria sanguinalis (level) ([2]; 60 g/ha): 10; weed control effect, Echinochloa crus-galli (level) ([2]; 60 g/ha): 10; weed control effect, Rorippa indica (level) ([2]; 60 g/ha): 10; weed control effect, Setaria viridis (level) ([2]; 60 g/ha): 10 |
| CCOc1c(C(=O)Oc2c(C(=O)c3ccc(S(C)(=O)=O)c(COCC(F)F)c3Cl)cnn2C)cnn1C [Compound 57] | – | – | – | – | – | – | – | – | – | 0 | 3 (Level 3: above 20% growth inhibition rate) | 0 | 7 (Level 7: above 70% growth inhibition rate) | 7 (Level 7: above 70% growth inhibition rate) | 7 (Level 7: above 70% growth inhibition rate) | 10 | 10 | 9 (Level 9: above 90% growth inhibition rate) | – |
| Cc1nn(C)c(OC(=O)c2cnn(C)c2)c1C(=O)c1ccc(S(C)(=O)=O)c(COCC(F)(F)C(F)F)c1Cl [Compound 65] | – | – | – | – | – | – | – | – | – | 0 | 3 (Level 3: above 20% growth inhibition rate) | 0 | 6 (Level 6: above 60% growth inhibition rate) | 7 (Level 7: above 70% growth inhibition rate) | 7 (Level 7: above 70% growth inhibition rate) | 10 | 10 | 6 (Level 6: above 60% growth inhibition rate) | – |
| CCn1ncc(C(=O)c2ccc(S(C)(=O)=O)c(Cn3cc(C)cn3)c2C)c1OC(=O)c1cnn(C)c1 [Compound 87] | 0 | 0 | 0 | 6 (Level 6: above 60% growth inhibition rate) | 6 (Level 6: above 60% growth inhibition rate) | 1 (Level 1: above 1-10% growth inhibition rate) | 10 | 4 (Level 4: above 30% growth inhibition rate) | 3 (Level 3: above 20% growth inhibition rate) | – | – | – | – | – | – | – | – | – | – |
